Assay results reported in patent publication US20260324651A1 (priority 2022, published 2026).

Columns and labels:
B. cinerea = experiment: Inhibitory effect of pure lipopeptides and their combinations on fungal growth
Method: (§1) To further explore the potential synergistic effect between bioactive metabolites assays with single families of bioactive compounds and their combinations were performed.
(§2) Increasing concentrations of pure stocks of surfactin (Sigma S3523, FIG. 4A), fengycin (Sigma SMB00292, FIG. 4B) or iturin (Sigma 11774, FIG. 4C) were added to 48-well microtiter plates containing PDB medium and a fixed fungal spore concentration. Inhibitory effect over two different phytopathogenic species was assayed, F. culmorum (FIG. 4, left) and B. cinerea (FIG. 4, right). Plates were incubated at 25° C. without shaking for 60 hours (in dark conditions) and fungal growth was measured by spectrophotometry at 600 nm.
(§3) Fungal growth inhibition of increasing concentrations of single compounds was compared with compound combinations, where a fixed concentration of one of them was assayed in combination with increasing concentrations of the second metabolite.

F. culmorum = experiment: as above
Method: as §1, §2, §3

[1] = in the presence of surfactin, vs fengycin alone
[2] = single lipopeptide, 25° C., 60 hours
[3] = with surfactin at 100-200 μg/ml

Substance	increase of bioactivity of fengycin in the presence of surfactin (B. cinerea; [1])	inhibition of fungal growth (B. cinerea; [2])	effective concentration of fengycin required to inhibit growth (B. cinerea; [3]) [µg/mL]	increase of bioactivity of fengycin in the presence of surfactin (F. culmorum; [1])	inhibition of fungal growth (F. culmorum; [2])	effective concentration of fengycin required to inhibit growth (F. culmorum; [3]) [µg/mL]	effective concentration for strong growth inhibition (B. cinerea; [2]) [µg/mL]	effective concentration for strong growth inhibition (F. culmorum; [2]) [µg/mL]	inhibitory effect on growth at high concentrations (B. cinerea; 200-400 μg/ml surfactin alone)	inhibitory effect on growth at high concentrations (F. culmorum; 200-400 μg/ml surfactin alone)
fengycin	up to 6 fold	potent inhibition of fungal growth	12.5	up to 6 fold	potent inhibition of fungal growth	12.5	–	–	–	–
iturin	–	potent inhibition of fungal growth	–	–	potent inhibition of fungal growth	–	9	9	–	–
surfactin	–	only compromised pathogen growth very weakly	–	–	only compromised pathogen growth very weakly	–	–	–	very modest and barely decreased the growth	very modest and barely decreased the growth
